{"source": "paper PMC2764853", "about": "“Versatile Assays for High Throughput Screening for Activators or Inhibitors of Intracellular Proteases and Their Cellular Regulators” (PLoS ONE, 2009)", "key": {"[1]": {"system": "Caspase8 activated with FADD + Fas", "assay": "Yeast cleavable-reporter β-galactosidase assay, Fas/FADD/Caspase-8 three-component system (384 well)", "format": "cell-based, human", "details": "for selectivity for Fas/FADD/Caspase-8 over Asc/Caspase-1 in yeast reporter assays: 384 well, various concentrations, 2–4 days at 30°C, OD620, counter-strains lacZ, Asc/Caspase-1, empty vector", "method": "(§1) Figure 5 Validation of yeast-based assay using pharmacological inhibitor of Caspases. (A) Caspase-1, single component assay. EGY48 yeast cells expressing S1 substrate (TEF-Fas-d-S1-TA) and high levels of Caspase-1 (TEF-HA-Caspase1-FLAG) were incubated for 3 days in selection media (SD/X-gal) with the indicated concentrations of z-VAD-fmk in DMSO (•) or DMSO only (○), using 384-well plates. (B) Asc/Caspase-1 two-component system. EGY48 yeast cells expressing S1 substrate (TEF-Fas-d-S1-TA) a low level of pro-Caspase-1 (ΔTEF1-Caspase1-FLAG) and high levels of Asc (TEF-HA-Asc) were incubated for 3 days in the selection media (SD/X-gal) in 384 well plates with the indicated concentrations of calpeptin (▴) or z-VAD-fmk (•) or an equivalent volume of DMSO (○). (C) Fas/FADD/Caspase8 three-component system. EGY48 yeast cells expressing S8 substrate (TEF-S8-TA), low levels of pro-Caspase-8 CYC1-Caspase-8-HA, with a small amount of FADD (from ΔADH1 promoter) and a large amount of Fas (from ADH promoter), were incubated in selection media (SD/X-gal) with the indicated concentrations of calpeptin (▴) or z-VAD-fmk (•), or equivalent volume of DMSO (○), in 384-well plates for 3–4 days. For (A–C), relative absorbance at 620 nm was measured (mean ± std dev; n = 3−5 independent experiments). (* indicates p<0.001).\nFigure 6 HTS Implementation of yeast-based, 3-component Caspase assays. (A) Validation of HTS assay for NLRP1-Asc-Caspase-1 system. Yeast cells (18 µl, typically at ≈2×10^5 cells/well) containing NLRP1ΔLRR/Asc/Caspase-1 were plated into wells of 384 well plates in media containing 1% galactose, 0.2% raffinose. Wells also contained 18 µL selection media with (blue squares) or without (purple diamonds) X-gal substrate (400 µg/mL final Concentration) plus 10% DMSO (4 µl) (to simulate compound addition). The plates were incubated for 72 hrs at 30°C and the OD620 was recorded. Values (mean±std dev) were calculated for the assay maximum and minimum. The Z' factor was calculated as described. (B) Example of library screening plate for NLRP1-Asc-Caspase-1. Yeast cells (typically at ≈2×10^5 cells/well) containing NLRP1/Asc/Caspase-1 were plated in 384 well plates in Selection Media, without (purple triangles) or with (all other wells) 400 µg/ml X-gal (final concentration). Compounds in DMSO (∼10 µM final) had been pre-added to wells (diamonds). The plates were incubated for 72 hrs at 30°C and the OD620 was recorded, “Hits” were defined by >50% reduction (as shown in green diamonds). […] Yeast cells containing Fas/FADD/Caspase-8 were cultured in 384 well plates as above with (blue squares) or without (purple diamonds) X-gal substrate, the plates were incubated for 72 hrs at 30°C and analyzed as above. […] Plates were incubated for 48 hrs at 30°C and OD620 values recorded. […]"}, "Caspases": {"system": "Caspases", "assay": "Yeast-based Caspase-dependent lacZ reporter gene assays, 384 well format (summary over assays)", "format": "cell-based, human", "method": "We further validated the 384 well assay format, using zVAD-fmk, a peptidyl inhibitor with broad-spectrum activity against animal Caspases. For some experiments, a Calpain inhibitor was employed in side-by-side experiments as a control. The broad-spectrum Caspase inhibitor zVAD-fmk inhibited β-galactosidase activity in a dose-dependent fashion, with the concentration required for achieving 50% inhibition ranging from ∼1–10 µM in these assays, which were performed in 384 well format (Figure 5) (Table S1). […] These experiments verify that the 384 well version of the yeast-based Caspase-dependent reporter gene assay faithfully indicates the activity of an inhibitory compound, thus fulfilling one of the prerequisites for developing HTS assays.\nFigure 5 Validation of yeast-based assay using pharmacological inhibitor of Caspases. (A) Caspase-1, single component assay. EGY48 yeast cells expressing S1 substrate (TEF-Fas-d-S1-TA) and high levels of Caspase-1 (TEF-HA-Caspase1-FLAG) were incubated for 3 days in selection media (SD/X-gal) with the indicated concentrations of z-VAD-fmk in DMSO (•) or DMSO only (○), using 384-well plates. […] For (A–C), relative absorbance at 620 nm was measured (mean ± std dev; n = 3−5 independent experiments). […]\n(§2) For caspase assays, the assays were performed in a total volume of 40 µl in triplicate. […] Absorbance at 620 nm was measured 2–3 days after culture at 30°C."}, "[2]": {"system": "NLRP1/ASC/Caspase-1 proteolytic network", "assay": "Yeast cleavable-reporter β-galactosidase assay, NLRP1/ASC/Caspase-1 three-component system (384 well)", "format": "cell-based, human", "details": "100 µM zVAD final, 2×10^5 cells/well, 48 hours, 400 µg/ml X-gal; Assay Max (DMSO) 0.78", "method": "For the Fas/FADD/Caspase-8 and the NLRP1/Asc/Caspase-1 assays, EGY48 yeast containing the desired plasmids were streaked onto SD plates (6.8 g Yeast Nitrogen Base w/o amino acids, 20 mg arginine, 50 mg threonine, 30 mg isoleucine, 60 mg phenylalanine, 20 mg valine) containing agar (1.7%), supplemented with 2% α-D-glucose and 50 µg/mL leucine. The plates were incubated at 30°C for 48 hrs and a colony was picked and transferred to a 14 ml polypropylene tube containing 2 ml of SD media broth supplemented with α-D-glucose and leucine as above and grown at 30°C for 16–24 hrs with shaking. Then, 1 ml of the overnight culture was transferred into 20 mls of growth media in a 500 ml flask and shaken at 30°C for 16–24 hrs. […] After 48 hours, the plates were brought to room temperature, the breathable film removed and replaced with the transparent polyester tape seal, and the plates were mixed, pelleted briefly and read using a Beckman DTX 880, recording absorbance at 620 nm.\nSupplementary file pone.0007655.s020.pdf: Figure S18 Determination of Z' scores for NLRP1(NALP1) and Fas(CD95) 3-component yeast-based HTS assays using caspase inhibitor zVAD-fmk. […] The Z' scores were determined by comparison of the DMSO-treated samples with the zVAD-treated samples. […]"}, "Caspase1": {"biological_target": "T1, Caspase1 (Homo sapiens, UniProt P29466)", "T1 construct": "We expressed full-length Caspases-1, 2, 3, 4, 5, 6, 7, and 9 from high copy-number plasmids; HA (N); FLAG (C); expressed in transfected cells; host or cells: Saccharomyces cerevisiae EGY48", "T1 sequence (P29466 120-297 limits assumed)": "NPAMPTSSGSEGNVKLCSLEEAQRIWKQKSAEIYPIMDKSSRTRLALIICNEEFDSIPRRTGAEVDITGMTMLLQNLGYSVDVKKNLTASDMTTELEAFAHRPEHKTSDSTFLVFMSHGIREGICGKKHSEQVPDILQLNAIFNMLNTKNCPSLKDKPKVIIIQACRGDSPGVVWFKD", "T1 sequence (P29466 317-404 limits assumed)": "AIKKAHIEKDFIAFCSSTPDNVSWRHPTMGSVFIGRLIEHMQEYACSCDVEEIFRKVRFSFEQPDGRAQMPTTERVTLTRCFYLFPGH", "assay": "Yeast cleavable-reporter β-galactosidase assay, Caspase-1 single component (384 well)", "format": "cell-based", "details": "yeast expressing Caspase1 alone at high levels; 384 well β-galactosidase activity assay; read-out: IC50 for z-VAD inhibition of Caspases", "method": "as §1, with “EGY48 yeast cells expressing S8 substrate (TEF-S8-TA), low levels of pro-Caspase-8 CYC1-Caspase-8-HA, with a small amount of FADD (from ΔADH1 promoter) and a large amount of Fas (from ADH promoter), were incubated in selection media (SD/X-gal) with the indicated concentrations of calpeptin (▴) or z-VAD-fmk (•), or equivalent volume of DMSO (○), in 384-well plates for 3–4 days.” left out, “(* indicates p<0.001).” left out\nas §2\n(§3) Supplementary file pone.0007655.s002.pdf: Table S1 Determination of IC50 values for zVAD-fmk inhibition of Caspases in yeast. […] The compound was titrated into assays at various concentrations and percentage inhibition was determined. IC50 values were determined, using PRIZM software for analysis. […]"}, "[3]": {"biological_target": "Caspase10 activated with FADD", "assay": "Yeast cleavable-reporter β-galactosidase assay, FADD/Caspase-10 (384 well)", "format": "cell-based, human", "details": "384 well β-galactosidase activity assay, read-out: IC50 for z-VAD inhibition of Caspases", "method": "(§4) For caspase assays, the assays were performed in a total volume of 40 µl in triplicate. First, 20 µl of liquid selection media containing X-gal and a series of concentrations of reagents such as z-VAD was dispensed into each well of 384-well plates. Next, confluent yeast cells expressing various Caspases and cleavable substrates were collected, washed with water, and suspended in selection media of the same volume as the culture media. The yeast suspension was diluted to 1∶5-10 (v:v) with the selection media, and 20 µl aliquots were added to the 384-well plates. For ATG4B assays, yeast cells expressing ATG4B and LC3 fused-transcription factor were cultured overnight in standard growth medium, then the yeast cells were diluted in selection medium (SD medium containing 1% galactose, 0.2% raffinose, BU salts, and 100 µg/ml X-gal) at 10^4/ml and dispensed 100 µl into each well of 384-well plates. Absorbance at 620 nm was measured 2–3 days after culture at 30°C.\nas §3"}, "Caspase6": {"biological_target": "T2, Caspase6 (Homo sapiens, UniProt P55212)", "T2 construct": "We expressed full-length Caspases-1, 2, 3, 4, 5, 6, 7, and 9 from high copy-number plasmids; HA (N); expressed in transfected cells; host or cells: Saccharomyces cerevisiae (EGY48)", "T2 sequence (P55212 24-179 limits assumed)": "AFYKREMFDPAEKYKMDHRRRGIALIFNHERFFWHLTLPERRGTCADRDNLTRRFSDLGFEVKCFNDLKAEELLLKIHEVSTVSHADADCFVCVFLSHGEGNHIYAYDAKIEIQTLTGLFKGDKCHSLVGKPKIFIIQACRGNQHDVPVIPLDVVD", "T2 sequence (P55212 194-293 limits assumed)": "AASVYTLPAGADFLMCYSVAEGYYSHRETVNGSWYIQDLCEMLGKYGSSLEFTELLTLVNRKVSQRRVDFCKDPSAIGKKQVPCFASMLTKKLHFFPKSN", "assay": "Yeast cleavable-reporter β-galactosidase assay, Caspase-6 (384 well)", "format": "cell-based", "details": "yeast expressing Caspase6; 384 well β-galactosidase activity assay; read-out: IC50 for z-VAD inhibition of Caspases", "method": "as §4, §3"}, "[4]": {"biological_target": "Caspase1 activated with Asc", "assay": "Yeast cleavable-reporter β-galactosidase assay, Asc/Caspase-1 two-component system (384 well)", "format": "cell-based, human", "details": "384 well β-galactosidase activity assay, read-out: IC50 for z-VAD inhibition of Caspases", "method": "as §1, with “EGY48 yeast cells expressing S8 substrate (TEF-S8-TA), low levels of pro-Caspase-8 CYC1-Caspase-8-HA, with a small amount of FADD (from ΔADH1 promoter) and a large amount of Fas (from ADH promoter), were incubated in selection media (SD/X-gal) with the indicated concentrations of calpeptin (▴) or z-VAD-fmk (•), or equivalent volume of DMSO (○), in 384-well plates for 3–4 days.” left out, “(* indicates p<0.001).” left out\nFor caspase assays, the assays were performed in a total volume of 40 µl in triplicate. […] Absorbance at 620 nm was measured 2–3 days after culture at 30°C. […]\nas §3"}, "[5]": {"biological_target": "Caspase9 activated with Apaf*", "assay": "Yeast cleavable-reporter β-galactosidase assay, Apaf*/Caspase-9 (384 well)", "format": "cell-based, human", "details": "384 well β-galactosidase activity assay, read-out: IC50 for z-VAD inhibition of Caspases", "method": "as §4, §3"}}, "note": "Residues, ends and D or L forms follow the SMILES beside them. *: point of attachment. Cbz = O=C(OCc1ccccc1)*; CH2F = FC*", "data": [{"smiles": "c1ccc2c(c1)[I+]c1ccccc1-2", "note": "[CID-3101]", "values": [{"measurement": "selectivity for Fas/FADD/Caspase-8 over Asc/Caspase-1 in yeast reporter assays", "setting": "[1]", "result": "selective inhibition of Fas-FADD-Caspase-8"}]}, {"smiles": "C[n+]1cc2c3c(ccc2c2ccc4cc5c(cc4c21)OCO5)OCO3", "note": "[CID-5154]", "values": [{"measurement": "selectivity for Fas/FADD/Caspase-8 over Asc/Caspase-1 in yeast reporter assays", "setting": "[1]", "result": "selective inhibition of Fas-FADD-Caspase-8"}]}, {"smiles": "CCCC[C@@H](C=O)NC(=O)[C@H](CC(C)C)NC(=O)OCc1ccccc1", "note": "[Calpain inhibitor, calpeptin]", "values": [{"measurement": "suppression of activation of the lacZ reporter gene", "setting": "Caspases; control compound side-by-side with zVAD-fmk", "result": "did not suppress activation of the lacZ reporter gene"}]}, {"smiles": "COC(=O)C[C@H](NC(=O)[C@H](C)NC(=O)[C@@H](NC(=O)OCc1ccccc1)C(C)C)C(=O)CF", "note": "[zVAD-fmk] (Cbz-Val-Ala-Asp(OMe)-CH2F)", "values": [{"measurement": "Assay Min (zVAD), absorbance OD620", "setting": "[2]", "result": 0.19}, {"measurement": "IC50", "setting": "Caspase1", "result": 3.07, "unit": "µM"}, {"measurement": "IC50", "setting": "[3]", "result": 9.52, "unit": "µM"}, {"measurement": "IC50", "setting": "Caspase6", "result": 6.78, "unit": "µM"}, {"measurement": "IC50", "setting": "Caspases; range over the yeast Caspase assays, dose-dependent, read-out: concentration required for achieving 50% inhibition of β-galactosidase activity", "result": "1 to 10", "unit": "µM"}, {"measurement": "IC50", "setting": "[4]", "result": 1, "unit": "µM"}, {"measurement": "IC50", "setting": "[5]", "result": 10.7, "unit": "µM"}, {"measurement": "Assay Min (zVAD), absorbance OD620", "setting": "[1]; 100 µM zVAD final, 2×10^5 cells/well, 48 hours, 400 µg/ml X-gal, Assay Max (DMSO) 0.56", "result": 0.20}, {"measurement": "IC50", "setting": "[1]; yeast, Caspase8 activated with FADD + Fas, 384 well β-galactosidase activity assay, read-out: IC50 for z-VAD inhibition of Caspases", "result": 5.42, "unit": "µM"}]}]}
